Reference: patent publication US12319655B2, “RAF kinase inhibitors and methods of use thereof” (Deciphera Pharmaceuticals, LLC, priority 2021, dated 2025)

Assays:
Type in all cases: cell-based
A375 cells = test: A375 Cell Proliferation Assay (1); details: Homo sapiens, A-375
How it was run: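 Resazurin fluorescence (excitation 540 nm, emission 600 nm, after a further 5-6 h) gave IC50s from triplicate compound dilution series.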

Miapaca-2 cells = test: MiaPaca-2 Cell Proliferation Assay (1); details: Homo sapiens, MIA PaCa-2, single agent, read-out: MiaPaca2 (1) IC50
How it was run: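 Resazurin was added after compound exposure and incubated 5-6 h, then fluorescence read at 540 nm excitation and 600 nm emission to give IC50.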

H2405 cells = test: H2405 Cell Proliferation Assay (2); details: Homo sapiens, NCI-H2405
Experimental: H2405 Cell Proliferation Assay (2)
H2405 cells (catalog #CRL-5994) are obtained from the American Type Culture Collect (ATTC, Manassas, VA). Briefly, cells were grown in RPMI 1640 supplemented with 5% characterized fetal bovine serum (Invitrogen, Carlsbad, CA) and 1% Penicillin/Streptomycin/L-Glutamine at 37° C., 5% CO2, and 95% humidity. Cells are expanded until reaching 70-95% confluency at which point they are sub-cultured or harvested for assay use. A serial dilution of test compound is dispensed into a 384-well black clear bottom plate in triplicate. Seven hundred fifty cells are added per well in 50 μL complete growth medium in the 384-well plate. Plates are incubated for 67-72 h at 37° C., 5% CO2, and 95% humidity. At the end of the incubation, 10 μL of a 440 μM solution of resazurin (Sigma, St. Louis, MO) in PBS is added to each well of the plate and plates are incubated for an additional 5-6 h at 37° C., 5% CO2, and 95% humidity. Plates are read on a Synergy2 or equivalent reader (Biotek, Winooski VT) using an excitation of 540 nm and an emission of 600 nm. Data is analyzed using Prism software (GraphPad, San Diego, CA) to calculate IC50 values

IC50 (A375 cells) | IC50 (Miapaca-2 cells) | IC50 (H2405 cells) | SMILES
100 to 500 nM | – | – | COC(=O)Nc1cc(-c2cccc(-c3cc(NC(=O)c4ccnc(C(C)(C)F)c4)cnc3C)c2)ncn1 [Example 404]
≤ 100 nM | 500 to 1000 nM | – | COC(=O)Nc1cc(-c2cncc(-c3cc(NC(=O)c4ccnc(C5(C#N)CC5)c4)ccc3C)c2)ncn1 [Example 405]
≤ 100 nM | 500 to 1000 nM | – | Cc1ncc(NC(=O)c2ccnc(C(C)(C)F)c2)cc1-c1cncc(-c2cc(NC(=O)C3CC3)ncn2)c1 [Example 406]
1000 to 10000 nM | – | – | Cc1ncc(NC(=O)c2ccnc(C(C)(C)C#N)c2)cc1-c1cccc(-c2cnc3ccccn23)c1 [Example 407]
100 to 500 nM | – | – | CNC(=O)c1cc(-c2cncc(-c3cc(NC(=O)c4ccnc(C(C)(C)F)c4)c(F)cc3C)c2)ccn1 [Example 408]
1000 to 10000 nM | – | – | COC(=O)Nc1cc(-c2cnnc(-c3cc(NC(=O)c4cn(C(C)C)nn4)ccc3C)c2)ccn1 [Example 409]
≤ 100 nM | 1000 to 10000 nM | – | Cc1ncc(NC(=O)c2ccnc(C(C)(C)C#N)c2)cc1-c1cncc(-c2cc(NC(=O)C3CC3)ncn2)c1 [Example 410]
500 to 1000 nM | 1000 to 10000 nM | – | Cc1ccc(NC(=O)c2ccnc(C(C)(C)F)c2)cc1-c1cncc(-c2cc(N)ncn2)c1 [Example 411]
≤ 100 nM | 500 to 1000 nM | – | Cc1ccc(NC(=O)c2cn(C(C)C)nn2)cc1-c1cncc(-c2cc(NC(=O)C3CC3)ncn2)c1 [Example 412]
≤ 100 nM | 1000 to 10000 nM | – | CNC(=O)c1cc(-c2cncc(-c3cc(NC(=O)c4ccnc(C(C)(C)F)c4)ccc3C)c2)ccn1 [Example 413]
≤ 100 nM | 100 to 500 nM | – | COC(=O)Nc1cc(-c2cncc(-c3cc(NC(=O)c4ccnc(C(C)(C)C#N)c4)ccc3C)c2)ncn1 [Example 414]
1000 to 10000 nM | – | – | COC(=O)Nc1cc(-c2cccc(-c3cc(NC(=O)Cn4cc(C(C)C)nn4)cnc3C)c2)ccn1 [Example 415]
100 to 500 nM | 500 to 1000 nM | – | COC(=O)Nc1cc(-c2cc(-c3cc(NC(=O)c4ccnc(C(C)(C)F)c4)ccc3C)nc(C)n2)ccn1 [Example 416]
≤ 100 nM | 500 to 1000 nM | – | Cc1ccc(NC(=O)c2ccnc(C(C)(C)F)c2)cc1-c1cncc(-c2ccnc(NC(=O)C3CC3)c2)c1 [Example 417]
≤ 100 nM | 100 to 500 nM | – | Cc1cc(F)c(NC(=O)c2ccnc(C(C)(C)C#N)c2)cc1-c1cncc(-c2ccnc(NC(=O)C3CC3)c2)c1 [Example 418]
≤ 100 nM | 100 to 500 nM | – | Cc1ccc(NC(=O)c2ccnc(C(C)(F)F)c2)cc1-c1cncc(-c2cc(NC(=O)C3CC3)ncn2)c1 [Example 419]
≤ 100 nM | – | – | Cc1ccc(NC(=O)c2ccnc(C(C)(C)C#N)c2)cc1-c1cncc(-c2cc(NC(=O)C(C)C)ncn2)c1 [Example 420]
≤ 100 nM | 1000 to 10000 nM | – | Cc1ccc(NC(=O)c2cc(C3CC3)on2)cc1-c1cncc(-c2cc(NC(=O)C3CC3)ncn2)c1 [Example 421]
1000 to 10000 nM | – | – | Cc1ccc(NC(=O)c2ccnc(C(C)(C)C#N)c2)cc1-c1cncc(-c2cc(N)ncn2)c1 [Example 422]
≤ 100 nM | – | – | Cc1cc(F)c(NC(=O)c2ccnc(C(C)(C)F)c2)cc1-c1cncc(-c2cc(NC(=O)C3CC3)ncn2)c1 [Example 423]
≤ 100 nM | – | – | Cc1cc(F)c(NC(=O)c2ccnc(C(C)(C)C#N)c2)cc1-c1cncc(-c2cc(NC(=O)C3CC3)ncn2)c1 [Example 424]
≤ 100 nM | – | – | COC(=O)Nc1cc(-c2cncc(-c3cc(NC(=O)c4ccnc(C(C)(C)F)c4)ccc3C)c2)ncn1 [Example 425]
100 to 500 nM | 1000 to 10000 nM | – | CNC(=O)c1cc(-c2nccc(-c3cc(NC(=O)c4ccnc(C(C)(C)F)c4)c(F)cc3C)n2)ccn1 [Example 427]
100 to 500 nM | – | – | CNC(=O)c1cc(-c2cc(-c3cc(NC(=O)c4ccnc(C(C)(C)F)c4)ccc3C)nc(C)n2)ccn1 [Example 428]

IC50 (A375 cells) | IC50 (Miapaca-2 cells) | IC50 (H2405 cells) | SMILES
≤ 100 nM | – | – | Cc1ccc(NC(=O)c2ccnc(C(F)F)c2)cc1-c1cncc(-c2cc(NC(=O)C3CC3)ncn2)c1 [Example 429]
100 to 500 nM | 1000 to 10000 nM | – | Cc1ccc(NC(=O)c2cnn(C3CC3)c2)cc1-c1cncc(-c2cc(NC(=O)C3CC3)ncn2)c1 [Example 430]
≤ 100 nM | 1000 to 10000 nM | – | Cc1ccc(NC(=O)c2cc(C(C)(C)C)on2)cc1-c1cncc(-c2cc(NC(=O)C3CC3)ncn2)c1 [Example 431]
500 to 1000 nM | – | – | Cc1ccc(NC(=O)c2ccnc(C(C)(C)F)c2)cc1-c1cncc(-c2ccnc3c2CC(=O)N3)c1 [Example 432]
≤ 100 nM | 500 to 1000 nM | – | Cc1ncc(NC(=O)c2ccnc(C(C)(C)F)c2)cc1-c1cncc(-c2ccnc(NC(=O)C3CC3)c2)c1 [Example 433]
≤ 100 nM | 100 to 500 nM | – | Cc1ccc(NC(=O)c2ccnc(C(C)C)c2)cc1-c1cncc(-c2cc(NC(=O)C3CC3)ncn2)c1 [Example 434]
≤ 100 nM | 500 to 1000 nM | – | COC(=O)Nc1cc(-c2cncc(-c3cc(NC(=O)c4ccnc(C(C)(C)F)c4)ccc3C)c2)ccn1 [Example 435]
100 to 500 nM | 1000 to 10000 nM | – | Cc1ccc(NC(=O)c2cc(C3CC3)n(C)n2)cc1-c1nccc(-c2ccnc(NC(=O)C3CC3)c2)n1 [Example 436]
1000 to 10000 nM | 1000 to 10000 nM | – | CNC(=O)c1cc(-c2cc(-c3cc(NC(=O)c4ccnc(C(C)(C)C#N)c4)ccc3OC)ccn2)ccn1 [Example 437]
≤ 100 nM | 1000 to 10000 nM | – | COc1ccc(NC(=O)c2ccnc(C(C)(C)C#N)c2)cc1-c1cccc(-c2cc(NC(=O)C3CC3)ncn2)c1 [Example 438]
– | – | 100 to 500 nM | Cc1ccc(NC(=O)c2ccnc(C(C)(C)F)c2)cc1-c1ccnc(-c2ccnc(C(=O)NCCO)c2)c1 [Example 448]
– | – | ≤ 100 nM | CNC(=O)c1cc(-c2cc(-c3cc(NC(=O)c4ccnc(C(C)(C)F)c4)ccc3C)cc(OCCO)n2)ccn1 [Example 449]
– | – | 100 to 500 nM | Cc1ccc(NC(=O)c2ccnc(C(C)(C)F)c2)cc1-c1ccnc(-c2ccnc(C(=O)NC3CN(C)C3)c2)c1 [Example 450]
– | – | 100 to 500 nM | CNC(=N)c1cc(-c2cc(-c3cc(NC(=O)c4ccnc(C(C)(C)F)c4)ccc3C)ccn2)ccn1 [Example 452]
– | – | 100 to 500 nM | Cc1ccc(NC(=O)c2ccnc(C(C)(C)F)c2)cc1-c1ccnc(-c2ccnc(C(=O)NCCN(C)C)c2)c1 [Example 453]
– | – | ≤ 100 nM | Cc1ncc(NC(=O)c2ccnc(C(C)(C)F)c2)cc1-c1ccnc(-c2ccnc(NC(=O)C3CC3)c2)c1 [Example 454]
– | – | ≤ 100 nM | Cc1ccc(NC(=O)c2ccnc(C(C)(C)F)c2)cc1-c1ccnc(-c2ccnc(NC(=O)C3CC3)c2)c1 [Example 455]
– | – | ≤ 100 nM | Cc1ccc(NC(=O)c2ccnc(C(C)(C)C#N)c2)cc1-c1ccnc(-c2ccnc(NC(=O)C3CC3)c2)c1 [Example 456]
– | – | ≤ 100 nM | Cc1ccc(NC(=O)c2ccnc(C3(C#N)CC3)c2)cc1-c1ccnc(-c2ccnc(NC(=O)C3CC3)c2)c1 [Example 457]
– | – | ≤ 100 nM | Cc1ccc(NC(=O)c2ccnc(C3CC3)c2)cc1-c1ccnc(-c2ccnc(NC(=O)C3CC3)c2)c1 [Example 458]
– | – | ≤ 100 nM | Cc1ccc(NC(=O)c2ccnc(C(C)(F)F)c2)cc1-c1ccnc(-c2ccnc(NC(=O)C3CC3)c2)c1 [Example 459]
– | – | 100 to 500 nM | CNC(=O)c1cc(-c2cc(-c3cc(NC(=O)c4ccnc(C5CC5)c4)ccc3C)ccn2)ccn1 [Example 460]
– | – | ≤ 100 nM | Cc1ncc(NC(=O)c2ccnc(C3(C#N)CC3)c2)cc1-c1ccnc(-c2ccnc(NC(=O)C3CC3)c2)c1 [Example 461]
